What was measured:
[1] = anti-hypertensive activity in mammals, overall observations; conditions: in words; for anti-hypertensive activity: in mammals
Protocol: The anti-hypertensive properties of the imidazole derivatives of the invention may be shown by using anesthetized Sprague-Dawley rats of normal weight. The test animals are first anesthetized with urethane. After this the femoral artery is connected by way of a polyethylene tube with a blood pressure transducer. The test substance is injected into the femoral vein. The blood pressure and the pulse frequency are registered with a recorder.
(§1) In a further test unanesthetized Okamoto-Aoki spontaneous hypertensive rats (SHR) are used. The test derivative is administered perorally by way of a tube into the stomach. The blood pressure is measured from the tail using an indirect bloodless method.

rats = experiment: toxicity (LD50) in rats; assay type: in vivo; conditions: in words
[2] = test system: anesthetized Sprague-Dawley rats; experiment: blood pressure and pulse frequency in anesthetized Sprague-Dawley rats, i.v.; assay type: in vivo
Protocol: The test animals are first anesthetized with urethane. […] The test substance is injected into the femoral vein.

[3] = preliminary tests of further pharmacological activities; conditions: in words
Sprague-Dawley male rats = experiment: diuretic effect: urine volume in rats after intraperitoneal injection; assay type: in vivo; conditions: for Mean Cumulative Volume of Urine, 0-1 hours / Mean Cumulative Volume of Urine, 0-2 hours / Mean Cumulative Volume of Urine, 0-3 hours / Mean Cumulative Volume of Urine, 0-4 hours / Mean Cumulative Volume of Urine, 0-5 hours: 2 mg/kg intraperitoneally, 6 rats, 10 ml water by gastric tube; for Mean Cumulative Volume of Urine, 0-1 hours: saline control 1.1; for Mean Cumulative Volume of Urine, 0-2 hours: saline control 7.2; for Mean Cumulative Volume of Urine, 0-3 hours: saline control 11.4; for Mean Cumulative Volume of Urine, 0-4 hours / Mean Cumulative Volume of Urine, 0-5 hours: saline control 13.5; for diuretic activity: in words
Protocol: The diuretic effect of the intermediates may be studied by injecting the compounds intraperitoneally to adult Sprague-Dawley male rats after an overnight fast. Simultaneously, 10 ml of water is fed to each rat through a gastric tube.

gastric ulcers = experiment: anti-ulcer activity: gastric ulcers induced by anti-inflammatory agents (e.g., indomethacin); assay type: in vivo; conditions: i.p., ulcers counted after three hours, fasted female rats
[4] = test system: Okamoto-Aoki spontaneous hypertensive rats (SHR); experiment: blood pressure in unanesthetized spontaneous hypertensive rats (SHR), peroral; assay type: in vivo; conditions: 100 mg/kg p.o.
Protocol: as §1

[5] = in words; prior art; cited from earlier work

For `Cc1c[nH]c(Nc2c(Cl)cccc2Cl)n1` [compound II, 2-(2',6'-dichloroanilino)-4-methyl-imidazole], the anti-hypertensive activity [1] was “excellent anti-hypertensive activity”, the “reduction of the blood pressure, character and duration” value [1] was “smooth and of relatively long duration” and the “temporary rise of the blood pressure at the beginning of the administration” value [1] was “No temporary rise of the blood pressure is observed”. For the same compound, the toxicity (rats) was “low toxicity”, the “Average reduction of blood pressure” value ([2]; 10 mg/kg i.v.) was 25% and the analgesic activity [3] was “analgesic”. For the same compound, the anti-arrhythmic activity [3] was “anti-arrhythmic activity”, the anti-convulsant activity [3] was “anti-convulsant” and the anti-depressant activity [3] was “anti-depressant”. For the same compound, the anti-inflammatory activity [3] was “anti-inflammatory” and the anti-ulcer activity [3] was “anti-ulcer”.
With `CCOC(=O)Cc1cn(-c2c(Cl)cccc2Cl)c(N)n1` [Compound Ib, 4-[1-(2',6'-dichlorophenyl)-2-amino]-imidazoleacetic acid ethyl ester] the “Mean Cumulative Volume of Urine, 0-1 hours” value (Sprague-Dawley male rats) was 2.3 mL, the “Mean Cumulative Volume of Urine, 0-2 hours” value (Sprague-Dawley male rats) was 10.9 mL and the “Mean Cumulative Volume of Urine, 0-3 hours” value (Sprague-Dawley male rats) was 12.3 mL. For the same compound, the “Mean Cumulative Volume of Urine, 0-4 hours” value (Sprague-Dawley male rats) was 14.5 mL and the “Mean Cumulative Volume of Urine, 0-5 hours” value (Sprague-Dawley male rats) was 15.7 mL.
For `Nc1nc(CC(=O)O)cn1-c1c(Cl)cccc1Cl` [Compound Ia, 4-[1-(2',6'-dichlorophenyl)-2-amino]-imidazoleacetic acid], the “Mean Cumulative Volume of Urine, 0-1 hours” value (Sprague-Dawley male rats) was 2.6 mL, the “Mean Cumulative Volume of Urine, 0-2 hours” value (Sprague-Dawley male rats) was 10.2 mL and the “Mean Cumulative Volume of Urine, 0-3 hours” value (Sprague-Dawley male rats) was 13.9 mL. For the same compound, the “Mean Cumulative Volume of Urine, 0-4 hours” value (Sprague-Dawley male rats) was 14.7 mL, the “Mean Cumulative Volume of Urine, 0-5 hours” value (Sprague-Dawley male rats) was 16.4 mL and the diuretic activity (Sprague-Dawley male rats) was “significant diuretic activity”.
With `Cc1cn(-c2c(Cl)cccc2Cl)c(N)n1` [compound I, 1-(2',6'-dichlorophenyl)-2-amino-4-methyl-imidazole] the minimal effective dose (gastric ulcers; Rattus norvegicus, ip, 3 h, doses as small as, read-out: smallest dose effective in reducing the number of ulcers) was 1 mg/kg, the “dose that prevents the formation of gastric ulcers” value (gastric ulcers) was roughly 20 mg/kg and the anti-hypertensive activity [1] was “excellent anti-hypertensive activity”. For the same compound, the “reduction of the blood pressure, character and duration” value [1] was “smooth and of relatively long duration”, the “temporary rise of the blood pressure at the beginning of the administration” value [1] was “No temporary rise of the blood pressure is observed” and the “Average reduction of blood pressure” value ([2]; 10 mg/kg i.v.) was 25%. For the same compound, the “Average reduction of pulse frequency” value ([2]; 10 mg/kg i.v.) was 20%, the “Average reduction of blood pressure” value ([2]; 3,3 mg/kg i.v.) was 20% and the analgesic activity [3] was “analgesic”. The anti-arrhythmic activity [3] was “anti-arrhythmic activity”, the anti-convulsant activity [3] was “anti-convulsant” and the anti-depressant activity [3] was “anti-depressant”. The anti-inflammatory activity [3] was “anti-inflammatory”, the anti-ulcer activity [3] was “anti-ulcer” and the “Average reduction of blood pressure” value [4] was 35%.
In the case of `Clc1cccc(Cl)c1N=C1NCCN1` [clonidine, 2-(2,6-dichloroanilino)-2-imidazoline], the “temporary rise of the blood pressure at the beginning of administration” value [5] is listed as “temporary rise in blood pressure at the beginning of administration”.
In the case of `O=C(O)Cc1c[nH]c(Nc2c(Cl)cccc2Cl)n1` [Compound IIa, 4-[2-(2',6'-dichloroanilino)]-imidazoleacetic acid], the “Mean Cumulative Volume of Urine, 0-1 hours” value (Sprague-Dawley male rats) is reported as 1.3 mL, the “Mean Cumulative Volume of Urine, 0-2 hours” value (Sprague-Dawley male rats) is reported as 8.1 mL and the “Mean Cumulative Volume of Urine, 0-3 hours” value (Sprague-Dawley male rats) is reported as 12.9 mL. The “Mean Cumulative Volume of Urine, 0-4 hours” value (Sprague-Dawley male rats) was 14.3 mL, the “Mean Cumulative Volume of Urine, 0-5 hours” value (Sprague-Dawley male rats) was 14.9 mL and the diuretic activity (Sprague-Dawley male rats) was “significant diuretic activity”.
With `CCOC(=O)Cc1c[nH]c(Nc2c(Cl)cccc2Cl)n1` [Compound IIb, 4-[2-(2',6'-dichloroanilino)]-imidazoleacetic acid ethyl ester] the “Mean Cumulative Volume of Urine, 0-1 hours” value (Sprague-Dawley male rats) was 3.4 mL, the “Mean Cumulative Volume of Urine, 0-2 hours” value (Sprague-Dawley male rats) was 9.5 mL and the “Mean Cumulative Volume of Urine, 0-3 hours” value (Sprague-Dawley male rats) was 13.4 mL. For the same compound, the “Mean Cumulative Volume of Urine, 0-4 hours” value (Sprague-Dawley male rats) was 14.4 mL and the “Mean Cumulative Volume of Urine, 0-5 hours” value (Sprague-Dawley male rats) was 14.4 mL.
